pEC50, pIC50: −log10 of the molar value. Read-outs that look alike come from different tables or passages of the source.
How the values were obtained:
PC3 = PC3 proliferation; assay type: cell-based; conditions: Homo sapiens, PC-3; for pEC50: Table 1; for pIC50: Table 2
PI3K δ = PI3K δ (Homo sapiens, UniProt O00329); test: PI3K δ kinase assay; assay type: biochemical
mTOR = target: T1, mTOR (Homo sapiens, UniProt P42345); test: mTOR kinase inhibition assay; assay type: biochemical
T1 construct: purchased Invitrogen
Procedure: The compounds described herein and any other mTorC1/mTorC2 inhibitors known in the art can be tested against recombinant mTOR (Invitrogen) in an assay containing 50 mM HEPES, pH 7.5, 1 mM EGTA, 10 mM MgCl2, 2.5 mM, 0.01% Tween, 10 μM ATP (2.5 μCi of μ-32P-ATP), and 3 mg/mL BSA. Rat recombinant PHAS-1/4EBP1 (Calbiochem; 2 mg/mL) is used as a substrate. Reactions are terminated by spotting onto nitrocellulose, which is washed with 1M NaCl/1% phosphoric acid (approximately 6 times, 5-10 minutes each). Sheets are dried and the transferred radioactivity quantitated by phosphorimaging.
For instance, one can use Invitrogen's LanthaScreen™ Kinase assay to test the inhibitors of mTOR disclosed herein. This assay is a time resolved FRET platform that measures the phosphorylation of GFP labeled 4EBP1 by mTOR kinase. The kinase reaction is performed in a white 384 well microtitre plate. The total reaction volume is 20 μl per well and the reaction buffer composition is 50 mM HEPES pH7.5, 0.01% Polysorbate 20, 1 mM EGTA, 10 mM MnCl2, and 2 mM DTT. In the first step, each well receives 2 ul of test compound in 20% dimethylsulphoxide resulting in a 2% DMSO final concentration. Next, 8ul of mTOR diluted in reaction buffer is added per well for a 60 ng/ml final concentration. To start the reaction, 10 ul of an ATP/GFP-4EBP1 mixture (diluted in reaction buffer) is added per well for a final concentration of 10 μM ATP and 0.5 μM GFP-4EBP1. The plate is sealed and incubated for 1 hour at room temperature. […] The plate is sealed, incubated for 1 hour at room temperature, and then read on a plate reader set up for LanthaScreen™ TR-FRET. Data is analyzed and IC50s are generated using GraphPad Prism 5.

PI3K β = PI3K β (Homo sapiens, UniProt P42338); test: PI3K β kinase assay; assay type: biochemical
PI3K β, sequence (P42338 whole entry, species assumed): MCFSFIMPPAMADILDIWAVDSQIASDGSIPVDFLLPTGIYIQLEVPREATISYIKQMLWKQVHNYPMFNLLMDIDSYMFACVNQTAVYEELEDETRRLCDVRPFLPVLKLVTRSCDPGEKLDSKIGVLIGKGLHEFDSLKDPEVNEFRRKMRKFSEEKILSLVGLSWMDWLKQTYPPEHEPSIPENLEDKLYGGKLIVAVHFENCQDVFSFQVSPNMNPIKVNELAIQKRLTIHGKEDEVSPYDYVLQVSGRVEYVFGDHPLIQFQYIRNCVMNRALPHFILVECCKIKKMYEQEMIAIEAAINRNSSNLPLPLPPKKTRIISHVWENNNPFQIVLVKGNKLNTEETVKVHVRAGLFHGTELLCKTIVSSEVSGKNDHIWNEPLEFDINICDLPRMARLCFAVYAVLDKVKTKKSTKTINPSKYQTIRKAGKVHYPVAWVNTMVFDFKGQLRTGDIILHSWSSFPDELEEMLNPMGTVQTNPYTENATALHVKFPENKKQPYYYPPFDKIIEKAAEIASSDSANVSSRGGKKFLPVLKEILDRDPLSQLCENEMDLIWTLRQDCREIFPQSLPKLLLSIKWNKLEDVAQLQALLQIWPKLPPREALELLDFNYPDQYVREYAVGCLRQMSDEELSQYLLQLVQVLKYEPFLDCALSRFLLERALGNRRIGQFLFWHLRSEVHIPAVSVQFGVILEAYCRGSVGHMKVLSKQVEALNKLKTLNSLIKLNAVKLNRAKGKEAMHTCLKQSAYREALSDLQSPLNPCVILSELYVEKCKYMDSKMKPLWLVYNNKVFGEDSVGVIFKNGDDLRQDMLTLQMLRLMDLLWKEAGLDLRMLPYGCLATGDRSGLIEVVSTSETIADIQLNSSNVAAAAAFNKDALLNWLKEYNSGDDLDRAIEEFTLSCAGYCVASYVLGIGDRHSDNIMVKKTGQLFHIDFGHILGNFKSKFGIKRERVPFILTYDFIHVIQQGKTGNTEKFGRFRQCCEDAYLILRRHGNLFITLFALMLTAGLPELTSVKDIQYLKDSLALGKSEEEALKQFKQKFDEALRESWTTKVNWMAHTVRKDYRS
PI3K β, sequence (P27986 whole entry partner, species assumed): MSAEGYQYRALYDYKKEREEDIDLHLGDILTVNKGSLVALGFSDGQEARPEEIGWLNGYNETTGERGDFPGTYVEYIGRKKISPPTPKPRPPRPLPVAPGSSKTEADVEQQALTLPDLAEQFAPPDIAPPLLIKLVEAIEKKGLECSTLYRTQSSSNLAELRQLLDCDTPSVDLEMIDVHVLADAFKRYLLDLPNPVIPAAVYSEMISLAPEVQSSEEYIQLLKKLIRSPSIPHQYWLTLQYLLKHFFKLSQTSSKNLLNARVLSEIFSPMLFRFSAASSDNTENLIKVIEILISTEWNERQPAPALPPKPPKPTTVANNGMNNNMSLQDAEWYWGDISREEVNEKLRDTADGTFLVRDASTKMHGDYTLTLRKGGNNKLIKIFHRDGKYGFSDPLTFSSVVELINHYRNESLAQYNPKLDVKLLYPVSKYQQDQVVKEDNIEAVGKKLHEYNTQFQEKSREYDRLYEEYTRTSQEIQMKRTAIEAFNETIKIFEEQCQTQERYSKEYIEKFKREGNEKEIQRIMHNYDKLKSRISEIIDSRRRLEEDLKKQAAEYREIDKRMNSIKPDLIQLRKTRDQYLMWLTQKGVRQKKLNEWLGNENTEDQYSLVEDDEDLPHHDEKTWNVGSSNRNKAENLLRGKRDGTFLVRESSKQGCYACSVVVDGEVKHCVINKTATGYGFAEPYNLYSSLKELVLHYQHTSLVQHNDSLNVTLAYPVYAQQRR

PI3K γ = PI3K γ (Homo sapiens, UniProt P48736); test: PI3K γ kinase assay; assay type: biochemical
PI3K γ, sequence (P48736 whole entry, species assumed): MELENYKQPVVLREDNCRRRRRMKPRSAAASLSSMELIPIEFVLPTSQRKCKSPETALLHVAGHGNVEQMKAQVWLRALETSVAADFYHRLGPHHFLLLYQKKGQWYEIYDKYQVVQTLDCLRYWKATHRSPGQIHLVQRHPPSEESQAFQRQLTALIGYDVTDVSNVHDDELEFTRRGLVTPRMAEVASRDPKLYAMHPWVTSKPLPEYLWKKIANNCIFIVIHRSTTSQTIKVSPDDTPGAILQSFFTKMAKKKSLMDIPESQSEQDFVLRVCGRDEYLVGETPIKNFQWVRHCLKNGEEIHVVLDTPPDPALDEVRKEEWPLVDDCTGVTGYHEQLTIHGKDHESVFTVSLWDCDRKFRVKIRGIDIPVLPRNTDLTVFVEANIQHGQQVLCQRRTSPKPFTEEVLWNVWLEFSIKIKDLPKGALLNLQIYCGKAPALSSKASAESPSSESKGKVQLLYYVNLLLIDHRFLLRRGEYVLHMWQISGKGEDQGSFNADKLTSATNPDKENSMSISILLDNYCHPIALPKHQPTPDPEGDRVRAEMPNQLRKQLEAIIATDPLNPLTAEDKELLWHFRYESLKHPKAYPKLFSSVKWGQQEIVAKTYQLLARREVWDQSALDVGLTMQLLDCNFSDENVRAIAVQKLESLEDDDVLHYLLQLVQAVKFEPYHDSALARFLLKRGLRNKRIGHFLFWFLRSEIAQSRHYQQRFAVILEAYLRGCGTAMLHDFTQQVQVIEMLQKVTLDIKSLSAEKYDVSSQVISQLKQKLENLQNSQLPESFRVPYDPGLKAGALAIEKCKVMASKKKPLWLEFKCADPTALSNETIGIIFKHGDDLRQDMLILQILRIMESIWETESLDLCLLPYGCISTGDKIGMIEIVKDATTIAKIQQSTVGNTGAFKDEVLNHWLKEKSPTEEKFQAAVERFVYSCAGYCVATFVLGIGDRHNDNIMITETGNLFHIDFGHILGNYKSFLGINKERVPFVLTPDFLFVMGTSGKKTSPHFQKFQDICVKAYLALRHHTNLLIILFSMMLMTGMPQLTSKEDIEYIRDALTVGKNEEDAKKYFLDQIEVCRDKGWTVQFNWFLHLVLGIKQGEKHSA

PI3K α = PI3K α (Homo sapiens, UniProt P42336); test: PI3K α kinase assay; assay type: biochemical
PI3K α, sequence (P42336 whole entry, species assumed): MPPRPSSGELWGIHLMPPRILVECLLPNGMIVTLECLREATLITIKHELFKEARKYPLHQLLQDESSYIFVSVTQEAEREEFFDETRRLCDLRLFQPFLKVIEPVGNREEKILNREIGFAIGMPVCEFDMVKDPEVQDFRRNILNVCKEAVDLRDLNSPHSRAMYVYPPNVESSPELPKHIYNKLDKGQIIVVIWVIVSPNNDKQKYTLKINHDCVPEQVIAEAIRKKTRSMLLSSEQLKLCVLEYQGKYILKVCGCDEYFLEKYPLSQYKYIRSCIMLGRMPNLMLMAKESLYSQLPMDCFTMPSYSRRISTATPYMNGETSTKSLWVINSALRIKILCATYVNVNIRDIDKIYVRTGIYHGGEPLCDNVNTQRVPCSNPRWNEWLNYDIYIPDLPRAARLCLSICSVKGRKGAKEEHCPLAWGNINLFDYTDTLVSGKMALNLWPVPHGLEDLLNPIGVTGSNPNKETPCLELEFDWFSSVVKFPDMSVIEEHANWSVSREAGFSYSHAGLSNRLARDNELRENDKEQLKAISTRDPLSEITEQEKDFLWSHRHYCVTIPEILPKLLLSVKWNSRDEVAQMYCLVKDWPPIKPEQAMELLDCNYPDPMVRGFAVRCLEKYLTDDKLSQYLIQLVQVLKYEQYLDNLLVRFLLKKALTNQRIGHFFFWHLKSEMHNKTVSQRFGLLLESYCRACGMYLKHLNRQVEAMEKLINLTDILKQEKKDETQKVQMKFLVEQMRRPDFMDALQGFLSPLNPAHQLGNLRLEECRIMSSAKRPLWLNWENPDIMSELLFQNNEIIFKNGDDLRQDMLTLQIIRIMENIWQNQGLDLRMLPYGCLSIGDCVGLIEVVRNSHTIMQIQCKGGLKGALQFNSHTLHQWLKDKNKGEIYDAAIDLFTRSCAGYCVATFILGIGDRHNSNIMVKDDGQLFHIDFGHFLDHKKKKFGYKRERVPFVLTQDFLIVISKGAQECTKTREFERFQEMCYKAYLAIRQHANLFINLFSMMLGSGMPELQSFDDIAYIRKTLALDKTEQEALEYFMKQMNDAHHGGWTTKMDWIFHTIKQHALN
PI3K α, sequence (P27986 whole entry partner, species assumed): as the sequence (P27986 whole entry partner, species assumed) above

PI3K δ, sequence (O00329 whole entry, species assumed): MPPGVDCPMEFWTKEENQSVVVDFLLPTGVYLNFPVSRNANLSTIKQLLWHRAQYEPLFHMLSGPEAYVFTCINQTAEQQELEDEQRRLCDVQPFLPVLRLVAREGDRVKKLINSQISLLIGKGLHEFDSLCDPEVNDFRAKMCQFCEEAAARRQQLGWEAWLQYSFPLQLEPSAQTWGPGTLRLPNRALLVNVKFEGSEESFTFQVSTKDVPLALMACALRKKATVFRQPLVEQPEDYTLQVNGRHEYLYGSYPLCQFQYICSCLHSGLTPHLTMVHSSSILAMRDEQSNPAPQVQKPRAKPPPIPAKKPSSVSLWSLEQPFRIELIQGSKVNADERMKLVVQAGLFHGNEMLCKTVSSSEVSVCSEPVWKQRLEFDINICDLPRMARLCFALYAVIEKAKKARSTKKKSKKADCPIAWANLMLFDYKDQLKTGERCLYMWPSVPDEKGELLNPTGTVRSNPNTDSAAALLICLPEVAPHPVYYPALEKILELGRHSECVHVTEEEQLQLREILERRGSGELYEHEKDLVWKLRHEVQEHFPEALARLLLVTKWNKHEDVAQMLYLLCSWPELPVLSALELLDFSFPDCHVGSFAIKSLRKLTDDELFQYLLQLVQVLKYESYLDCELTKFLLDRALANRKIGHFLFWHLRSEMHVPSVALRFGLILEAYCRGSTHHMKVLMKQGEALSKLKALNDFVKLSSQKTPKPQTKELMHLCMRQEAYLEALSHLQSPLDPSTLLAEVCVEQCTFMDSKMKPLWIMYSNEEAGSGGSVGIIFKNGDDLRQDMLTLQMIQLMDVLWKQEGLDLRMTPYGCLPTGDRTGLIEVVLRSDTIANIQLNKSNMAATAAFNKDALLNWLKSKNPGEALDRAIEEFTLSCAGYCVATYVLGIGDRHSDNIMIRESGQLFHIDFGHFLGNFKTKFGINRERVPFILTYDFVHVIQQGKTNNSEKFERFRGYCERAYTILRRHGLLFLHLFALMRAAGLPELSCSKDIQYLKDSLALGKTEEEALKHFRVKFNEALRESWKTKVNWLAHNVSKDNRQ
PI3K δ, sequence (P27986 whole entry partner, species assumed): as the sequence (P27986 whole entry partner, species assumed) above

| SMILES | pEC50 (PC3) | pIC50 (PI3K δ; Table 1) | pIC50 (mTOR; Table 1, read-out: mTOR IC50) | pIC50 (PI3K β; Table 1) | pIC50 (PI3K γ; Table 1) | pIC50 (PI3K α; Table 1) | pIC50 (PC3) | pIC50 (PI3K δ; Table 2) | pIC50 (mTOR; Table 2, read-out: mTORC IC50) | pIC50 (PI3K β; Table 2) | pIC50 (PI3K γ; Table 2) | pIC50 (PI3K α; Table 2) | pIC50 (PI3K δ) |
| --- | --- | --- | --- | --- | --- | --- | --- | --- | --- | --- | --- | --- | --- |
| CC(=O)Nc1nc2cc(-c3nn(C(C)C)c4ncnc(N)c34)ccc2o1 [Compound 2] | > 6.00 | > 6.00 | > 7.00 | < 5.00 | > 6.00 | > 5.00 | – | – | – | – | – | – | – |
| CC(C)n1nc(-c2ccc3nc(N)oc3c2)c2c(N)ncnc21 [Compound 4] | > 5.00 | > 6.00 | > 6.00 | > 5.00 | > 6.00 | > 5.00 | – | – | – | – | – | – | – |
| Nc1nc2cc(-c3nn(C4CCOCC4)c4ncnc(N)c34)ccc2o1 [Compound 5] | > 7.00 | > 6.00 | > 7.00 | > 5.00 | > 7.00 | > 6.00 | – | – | – | – | – | – | – |
| Nc1nc2cc(-c3nn(C4CCC(N5CCOCC5)CC4)c4ncnc(N)c34)ccc2o1 (centres unmarked) [Compound 6] | > 6.00 | > 6.00 | > 7.00 | < 5.00 | – | – | – | – | – | – | – | – | – |
| CC(=O)N1CCC(n2nc(-c3ccc4oc(N)nc4c3)c3c(N)ncnc32)CC1 [Compound 7] | > 5.00 | > 6.00 | > 7.00 | > 5.00 | > 5.00 | > 6.00 | – | – | – | – | – | – | – |
| CC(C)n1cc(-c2ccc3oc(N)nc3c2)c2c(N)ncnc21 [Compound 8] | > 7.00 | > 6.00 | > 7.00 | < 5.00 | > 6.00 | > 6.00 | – | – | – | – | – | – | – |
| Nc1nc2cc(-c3cn(C4CCOCC4)c4ncnc(N)c34)ccc2o1 [Compound 9] | > 7.00 | – | > 7.00 | < 5.00 | – | > 5.00 | – | – | – | – | – | – | – |
| CC(C)n1nc(-c2ccc3onc(N)c3c2)c2c(N)ncnc21 [Compound 10] | < 5.00 | – | > 5.00 | – | – | – | – | – | – | – | – | – | – |
| CC(=O)Nc1noc2cc(-c3nn(C(C)C)c4ncnc(N)c34)ccc12 [Compound 11] | < 5.00 | – | > 6.00 | – | – | – | – | – | – | – | – | – | – |
| CC(C)n1nc(-c2cc3cccc(O)c3[nH]2)c2c(N)ncnc21 [Compound 11] | – | – | – | – | – | – | 7.30 to 7.60 | 6.30 to 7.00 | > 8.30 | < 6.30 | 6.30 to 7.00 | < 6.30 | – |
| CC(C)n1nc(-c2ccc3c(N)noc3c2)c2c(N)ncnc21 [Compound 12] | < 5.00 | – | > 6.00 | – | – | – | – | – | – | – | – | – | – |
| Nc1ncnc2c1c(-c1cc3cc(O)ccc3[nH]1)nn2C1CCCC1 [Compound 12] | – | – | – | – | – | – | 7.30 to 7.60 | – | 8.00 to 8.30 | < 6.30 | – | < 6.30 | < 6.30 |
| CC(C)n1nc(-c2cc3cc(O)cc(Cl)c3[nH]2)c2c(N)ncnc21 [Compound 15] | – | – | – | – | – | – | 7.30 to 7.60 | 7.30 to 7.60 | > 8.30 | < 6.30 | 7.30 to 7.60 | < 6.30 | – |
| CC(C)n1nc(-c2cc3cc(O)cc(F)c3[nH]2)c2c(N)ncnc21 [Compound 16] | – | – | – | – | – | – | 6.30 to 7.00 | 7.00 to 7.30 | > 8.30 | < 6.30 | 6.30 to 7.00 | < 6.30 | – |
| CC(C)n1nc(-c2cc3ccc(C#N)cc3[nH]2)c2c(N)ncnc21 [Compound 24] | – | – | – | – | – | – | < 6.30 | – | < 6.30 | – | – | < 6.30 | – |
| CC(C)n1nc(-c2cc3ccc(C(N)=O)cc3[nH]2)c2c(N)ncnc21 [Compound 25] | – | – | – | – | – | – | < 6.30 | – | 6.30 to 7.00 | – | – | < 6.30 | – |
| Nc1ncnc2c1c(-c1cc3cc(O)ccc3[nH]1)nn2C1CCCCC1 [Compound 26] | – | – | – | – | – | – | 6.30 to 7.00 | 7.00 to 7.30 | 8.00 to 8.30 | < 6.30 | 6.30 to 7.00 | < 6.30 | – |
| Nc1ncnc2c1c(-c1cc3cc(O)ccc3[nH]1)nn2C1CCC1 [Compound 27] | – | – | – | – | – | – | 6.30 to 7.00 | – | 7.60 to 8.00 | – | – | – | – |
| Nc1ncnc2c1c(-c1cc3cccc(O)c3[nH]1)nn2C1CCCC1 [Compound 36] | – | – | – | – | – | – | 7.00 to 7.30 | 6.30 to 7.00 | 8.00 to 8.30 | – | 7.00 to 7.30 | < 6.30 | – |
| COc1cccc2cc(-c3nn(C4CCN(C(=O)C5CC5)CC4)c4ncnc(N)c34)[nH]c12 [Compound 66] | – | – | – | – | – | – | – | < 6.30 | < 6.30 | < 6.30 | < 6.30 | < 6.30 | – |
| COc1cc(Cl)c2[nH]c(-c3nn(C4CCOCC4)c4ncnc(N)c34)cc2c1 [Compound 67] | – | – | – | – | – | – | – | < 6.30 | < 6.30 | < 6.30 | < 6.30 | < 6.30 | – |
| Nc1ncnc2c1c(-c1cc3cc(O)cc(Cl)c3[nH]1)nn2C1CCOCC1 [Compound 68] | – | – | – | – | – | – | – | 7.60 to 8.00 | > 8.30 | < 6.30 | 7.30 to 7.60 | 6.30 to 7.00 | – |
| CC(=O)N1CCC(n2nc(-c3cc4c(Cl)ccc(O)c4[nH]3)c3c(N)ncnc32)CC1 [Compound 69] | – | – | – | – | – | – | – | 6.30 to 7.00 | > 8.30 | < 6.30 | < 6.30 | < 6.30 | – |
| CC(=O)N1CCC(n2nc(-c3cc4cc(O)cc(Cl)c4[nH]3)c3c(N)ncnc32)CC1 [Compound 70] | – | – | – | – | – | – | – | 7.60 to 8.00 | > 8.30 | < 6.30 | 7.00 to 7.30 | 6.30 to 7.00 | – |
| CC(C)N1CCC(n2nc(-c3cc4c(Cl)ccc(O)c4[nH]3)c3c(N)ncnc32)CC1 [Compound 71] | – | – | – | – | – | – | – | < 6.30 | 7.00 to 7.30 | < 6.30 | < 6.30 | < 6.30 | – |
